# Legend:
# [1] = Relaxivity (r1, r2) in saline; format: physicochemical; details: NaCl 0.15 M in water, pH 7.3, 20 MHz, 39° C.
# From the text: (§1) Relaxivity values of the contrast agent of the present invention have been tested either in saline or in human serum obtained by Seronorm™ Human, freeze-dried human serum produced by Nycomed Pharma AS, Oslo, Norway. Serum obtained from said Seronorm™ is substantially equivalent to the fresh one, so its use in the relaxivity determination grants a good picture of the “in vivo” behaviour and, further, an excellent reproducibility of this test.
# [2] = Relaxivity (r1, r2) in reconstituted human serum (Seronorm™ Human); format: physicochemical; details: Between 0 and 1 mM (Seronorm™ Human), 20 MHz, 39° C.
# From the text: as §1
# The compounds object of the present invention are characterised by very high r1 and r2 relaxivity values. When measured in Seronorm™ Human at 20 MHz, at a temperature of 39° C., and at a concentration comprised from 0 to 1 mM, compounds of the present invention usually have r1 relaxivity equal to or, preferably, higher than 15^s−1mM^−1, thus confirming the formation of unexpectedly strong non-covalent bonds with serum proteins. […] Last, significative amounts of the preferred compounds of the invention have also been found in the urines, showing that, thanks to their binding to HSA, the same are very promising as blood pool diagnostic agents.
smiles,measurement,setting,value
O=C(O)CN(CCN(CCN(CC(=O)O)CC(=O)O)C(CCCCNC(=O)C(c1ccccc1)c1ccccc1)C(=O)O)CC(=O)O (centres unmarked),Relaxivity Saline r1,[1],5.70 mM⁻¹ s⁻¹
same,Relaxivity Serum r1,[2],20.1 mM⁻¹ s⁻¹

# — patent US6458337B1, “Diagnostic imaging contrast agent with improved in serum relaxivity” (Dibra S.p.A, priority 1996, dated 2002)
